Source: BindingDB's records for PubMed 29133594 (University of North Carolina at Chapel Hill)

Assays:
[1] = molecular target: RAC-alpha serine/threonine-protein kinase (Homo sapiens, UniProt P31749); test: Inhibition of AKT1 (unknown origin)
[2] = molecular target: T1, Aurora kinase A (Homo sapiens, UniProt O14965); test: Inhibition of AURKA (unknown origin)
T1 sequence (O14965 whole entry): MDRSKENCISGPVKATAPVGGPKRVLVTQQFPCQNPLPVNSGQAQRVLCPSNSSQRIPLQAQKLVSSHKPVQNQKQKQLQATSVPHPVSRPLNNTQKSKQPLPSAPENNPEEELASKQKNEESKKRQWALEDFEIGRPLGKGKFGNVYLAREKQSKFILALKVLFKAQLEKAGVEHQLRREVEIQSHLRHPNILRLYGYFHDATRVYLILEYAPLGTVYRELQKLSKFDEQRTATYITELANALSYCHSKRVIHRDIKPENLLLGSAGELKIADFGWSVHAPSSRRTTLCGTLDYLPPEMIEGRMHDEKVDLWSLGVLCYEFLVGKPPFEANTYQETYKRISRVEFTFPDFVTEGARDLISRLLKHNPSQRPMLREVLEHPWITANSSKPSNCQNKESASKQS

[3] = molecular target: Aurora kinase B (Homo sapiens, UniProt Q96GD4); test: Inhibition of AURKB (unknown origin)
Aurora kinase B, sequence (Q96GD4 whole entry): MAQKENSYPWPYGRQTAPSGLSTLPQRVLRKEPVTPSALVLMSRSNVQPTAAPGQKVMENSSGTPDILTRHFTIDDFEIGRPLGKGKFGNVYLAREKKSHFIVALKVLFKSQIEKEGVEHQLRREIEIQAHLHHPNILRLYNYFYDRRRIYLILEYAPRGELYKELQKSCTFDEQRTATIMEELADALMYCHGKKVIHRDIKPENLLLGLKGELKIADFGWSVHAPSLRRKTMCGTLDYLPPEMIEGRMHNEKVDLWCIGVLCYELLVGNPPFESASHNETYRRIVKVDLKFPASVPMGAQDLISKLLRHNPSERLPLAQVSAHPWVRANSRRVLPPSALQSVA

[4] = molecular target: RAF proto-oncogene serine/threonine-protein kinase (Homo sapiens, UniProt P04049); test: Inhibition of CRAF (unknown origin)
RAF proto-oncogene serine/threonine-protein kinase, sequence (P04049 whole entry): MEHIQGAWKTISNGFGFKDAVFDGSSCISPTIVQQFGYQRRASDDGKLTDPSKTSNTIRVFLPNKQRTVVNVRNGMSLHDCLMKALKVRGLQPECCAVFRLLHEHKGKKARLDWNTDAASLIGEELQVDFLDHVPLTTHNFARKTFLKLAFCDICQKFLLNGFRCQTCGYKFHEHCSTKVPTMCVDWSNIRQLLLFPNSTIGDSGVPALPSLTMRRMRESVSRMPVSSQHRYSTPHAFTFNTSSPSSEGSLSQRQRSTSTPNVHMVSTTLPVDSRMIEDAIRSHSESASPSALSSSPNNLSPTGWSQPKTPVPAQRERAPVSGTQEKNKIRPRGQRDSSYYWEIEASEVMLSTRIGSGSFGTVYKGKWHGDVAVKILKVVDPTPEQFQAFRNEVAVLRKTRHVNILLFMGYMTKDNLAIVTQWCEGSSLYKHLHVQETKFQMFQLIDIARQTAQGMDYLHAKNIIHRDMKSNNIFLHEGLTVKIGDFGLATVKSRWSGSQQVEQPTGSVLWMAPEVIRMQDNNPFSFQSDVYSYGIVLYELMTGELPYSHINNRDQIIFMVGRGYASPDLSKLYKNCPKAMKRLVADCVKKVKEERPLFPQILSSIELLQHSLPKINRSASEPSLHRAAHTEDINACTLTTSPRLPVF

[5] = molecular target: Mitogen-activated protein kinase 3 (Homo sapiens, UniProt P27361); test: Inhibition of ERK1 (unknown origin)
Mitogen-activated protein kinase 3, sequence (P27361 whole entry): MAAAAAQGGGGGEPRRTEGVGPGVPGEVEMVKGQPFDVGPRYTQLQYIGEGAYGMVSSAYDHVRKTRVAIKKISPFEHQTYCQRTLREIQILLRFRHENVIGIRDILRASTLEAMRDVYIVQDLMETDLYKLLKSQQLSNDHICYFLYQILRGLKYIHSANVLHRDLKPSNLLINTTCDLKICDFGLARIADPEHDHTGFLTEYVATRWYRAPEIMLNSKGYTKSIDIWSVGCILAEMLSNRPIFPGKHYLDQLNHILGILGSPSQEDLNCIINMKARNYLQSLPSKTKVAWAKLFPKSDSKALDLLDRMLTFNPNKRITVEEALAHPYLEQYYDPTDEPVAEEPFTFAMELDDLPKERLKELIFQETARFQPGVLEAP

[6] = molecular target: Serine/threonine-protein kinase PLK1 (Homo sapiens, UniProt P53350); test: Inhibition of PLK1 (unknown origin)
Serine/threonine-protein kinase PLK1, sequence (P53350 whole entry): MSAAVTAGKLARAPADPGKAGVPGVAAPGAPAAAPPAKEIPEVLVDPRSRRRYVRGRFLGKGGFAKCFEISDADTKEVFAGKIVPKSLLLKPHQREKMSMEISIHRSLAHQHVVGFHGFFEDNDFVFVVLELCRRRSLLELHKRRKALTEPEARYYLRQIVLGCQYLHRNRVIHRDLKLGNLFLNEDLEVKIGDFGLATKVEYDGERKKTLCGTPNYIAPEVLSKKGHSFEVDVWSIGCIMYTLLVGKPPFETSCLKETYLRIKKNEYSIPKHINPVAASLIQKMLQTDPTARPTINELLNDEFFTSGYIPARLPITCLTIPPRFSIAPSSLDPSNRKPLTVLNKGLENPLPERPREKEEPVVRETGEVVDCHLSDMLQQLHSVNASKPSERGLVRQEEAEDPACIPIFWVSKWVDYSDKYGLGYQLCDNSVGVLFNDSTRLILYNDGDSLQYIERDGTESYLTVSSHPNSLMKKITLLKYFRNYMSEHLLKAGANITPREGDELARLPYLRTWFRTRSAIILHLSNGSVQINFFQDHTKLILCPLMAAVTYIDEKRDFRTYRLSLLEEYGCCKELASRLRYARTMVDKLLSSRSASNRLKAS

[7] = molecular target: Serine/threonine-protein kinase PLK3 (Homo sapiens, UniProt Q9H4B4); test: Inhibition of PLK3 (unknown origin)
Serine/threonine-protein kinase PLK3, sequence (Q9H4B4 whole entry): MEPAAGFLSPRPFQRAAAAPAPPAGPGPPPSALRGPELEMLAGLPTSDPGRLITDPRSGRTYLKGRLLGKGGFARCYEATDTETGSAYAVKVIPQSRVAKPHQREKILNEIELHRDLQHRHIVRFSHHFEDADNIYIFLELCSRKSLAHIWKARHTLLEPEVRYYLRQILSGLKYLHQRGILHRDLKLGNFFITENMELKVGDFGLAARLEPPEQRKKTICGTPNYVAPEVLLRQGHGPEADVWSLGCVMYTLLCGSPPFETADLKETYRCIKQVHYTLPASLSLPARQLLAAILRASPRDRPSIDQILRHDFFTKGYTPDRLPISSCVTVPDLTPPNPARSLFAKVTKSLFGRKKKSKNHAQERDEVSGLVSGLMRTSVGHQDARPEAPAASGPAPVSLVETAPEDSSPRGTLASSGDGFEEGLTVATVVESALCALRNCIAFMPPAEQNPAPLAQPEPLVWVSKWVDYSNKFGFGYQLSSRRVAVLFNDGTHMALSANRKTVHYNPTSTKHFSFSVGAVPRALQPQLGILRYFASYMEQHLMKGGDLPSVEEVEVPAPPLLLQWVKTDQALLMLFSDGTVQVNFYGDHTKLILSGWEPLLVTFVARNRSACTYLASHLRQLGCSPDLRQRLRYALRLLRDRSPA

RAC-alpha serine/threonine-protein kinase, sequence (P31749 whole entry): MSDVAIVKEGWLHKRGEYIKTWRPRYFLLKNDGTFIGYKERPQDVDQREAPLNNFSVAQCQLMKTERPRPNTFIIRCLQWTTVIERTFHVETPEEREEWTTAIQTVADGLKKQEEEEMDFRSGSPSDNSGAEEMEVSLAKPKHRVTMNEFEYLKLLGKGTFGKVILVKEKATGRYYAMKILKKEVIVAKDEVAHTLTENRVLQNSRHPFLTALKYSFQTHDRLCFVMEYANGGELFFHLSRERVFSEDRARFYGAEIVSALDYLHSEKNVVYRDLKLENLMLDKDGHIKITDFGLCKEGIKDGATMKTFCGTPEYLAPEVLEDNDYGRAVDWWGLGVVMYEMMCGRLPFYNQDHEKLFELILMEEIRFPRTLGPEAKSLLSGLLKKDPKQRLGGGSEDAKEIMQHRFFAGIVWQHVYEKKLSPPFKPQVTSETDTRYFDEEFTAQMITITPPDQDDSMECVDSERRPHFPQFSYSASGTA

- IC50 [1]: > 20 µM
- IC50 [2]: > 20 µM
- IC50 [3]: > 20 µM
- IC50 [4]: > 20 µM
- IC50 [5]: > 20 µM
- IC50 [6]: > 20 µM
- IC50 [7]: > 20 µM
SMILES: CCN1CCN(Cc2ccc(Nc3ncc(F)c(-c4cc(F)c5nc(C)n(C(C)C)c5c4)n3)nc2)CC1 [Abemaciclib]
